We go through 67 compounds from patent US20080090805A1, “CB-1 MODULATING COMPOUNDS AND THEIR USE” (ACADIA PHARMACEUTICALS INC., priority 2005, published 2008).

Read-outs that look alike come from different tables or passages of the source.

This assay deals with CB1 (mutant) (Homo sapiens, UniProt P21554). The assay can be described thus: R-SAT functional receptor assay, CB1 (mutant, truncated after amino acid 417). It counts as cell-based. The following applies: R-SAT CB1; for Emax / % Inhibition: receptor form not stated, relative to SR141716 (100%); for Emax: read-out: % Inhibition.
The mark [1] stands for this setting: pIC50, Appendix A, receptor form (mutant or wild-type) not stated.
Setting [2] is: Appendix A, receptor form (mutant or wild-type) not stated, read-out: pIC50 (converted).

CB1 (mutant), sequence (P21554 1-417, change not shown): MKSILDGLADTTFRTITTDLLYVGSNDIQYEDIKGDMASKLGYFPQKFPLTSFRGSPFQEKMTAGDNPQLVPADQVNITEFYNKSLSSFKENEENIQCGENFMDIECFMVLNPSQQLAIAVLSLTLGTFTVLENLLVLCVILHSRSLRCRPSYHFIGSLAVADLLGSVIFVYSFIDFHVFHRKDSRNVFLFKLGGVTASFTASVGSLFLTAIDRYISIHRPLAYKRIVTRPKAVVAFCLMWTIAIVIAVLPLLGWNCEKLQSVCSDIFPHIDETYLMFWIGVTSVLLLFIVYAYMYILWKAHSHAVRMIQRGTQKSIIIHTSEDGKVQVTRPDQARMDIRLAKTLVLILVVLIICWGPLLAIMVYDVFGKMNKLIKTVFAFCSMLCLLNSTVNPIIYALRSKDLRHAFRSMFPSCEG

As for `O=C(NN1CCCCC1)c1ccc2c(c1)N=C(C1CCCCC1)c1ccccc1C2`, where the note is “Appendix A”, the Emax is 87%. On the same count and under the same terms, with `CON(C)C(=O)c1ccc2c(c1)N=C(c1ccc(Cl)c(Cl)c1)c1ccccc1S2` the figure was 0%. As for `CCCC1=Nc2cc(C(=O)NCc3ccccc3OC)ccc2Sc2ccccc21`, the Emax (Appendix A) came to 91%. Under setting [1], this compound had an IC50 of 63.1 nM. For `CCCCN(C)C(=O)c1ccc2c(c1)N=C(c1cccc(Cl)c1)c1ccccc1S2`, in that order: 82% and 79.4 nM. For `O=C(NN1CCCCC1)c1ccc2c(c1)N=C(c1ccccc1F)c1ccccc1S2` the same measures were 104% and 100 nM.

In the case of `CC(C)CNC(=O)c1ccc2c(c1)N=C(c1ccccc1Cl)c1ccccc1S2`, the Emax (Appendix A) is 86%. Same read-out and setting: with `O=C(NN1CCCC1)c1ccc2c(c1)N=C(c1cccc(Cl)c1)c1ccccc1S2` the figure was 85%; with `CCCCNC(=O)c1ccc2c(c1)N=C(c1ncccc1C)c1ccccc1S2`, 85%. Still for that read-out and setting: as for `O=C(c1ccc2c(c1)N=C(C1CCCCC1)c1ccccc1S2)N1CCCCC1`, the figure is 26%; as for `CC(C)NC(=O)c1ccc2c(c1)N=C(c1ccc(Br)cc1)c1ccccc1S2`, 83%. Still for that read-out and setting: with `O=C(NN1CCCC1)c1ccc2c(c1)N=C(c1cccc(F)c1)c1ccccc1S2` the figure was 67%; with `Cc1cccnc1C1=Nc2cc(C(=O)NCC(C)C)ccc2Sc2ccccc21`, 87%; with `CCCCN(C)C(=O)c1ccc2c(c1)N=C(c1ccc(Cl)cc1F)c1ccccc1S2`, 84%. For `COc1ccccc1C1=Nc2cc(C(=O)NCCC(C)C)ccc2Sc2ccccc21`, the Emax (Appendix A) was determined as 91%. Take `CCCCNC(=O)c1ccc2c(c1)N=C(c1ccccc1Cl)c1ccccc1S2`: the Emax (Appendix A) is 89%.

Consider `O=C(NCc1ccncc1)c1ccc2c(c1)N=C(c1ccccc1F)c1ccccc1S2`, for which, where the note is “Appendix A”, the Emax is 94%. On to `O=C(NCc1ccco1)c1ccc2c(c1)N=C(c1ccccc1Cl)c1ccccc1S2`, for which the Emax (Appendix A) came out at 95%. Same read-out and setting: as for `O=C(NCc1cccnc1)c1ccc2c(c1)N=C(c1ccccc1Cl)c1ccccc1S2`, the figure is 72%; as for `O=C(NCc1ccc(F)cc1)c1ccc2c(c1)N=C(c1ccc(F)cc1)c1ccccc1N2`, 61%. In the case of `O=C(NN1CCCCCC1)c1ccc2c(c1)N=C(c1sccc1Cl)c1ccccc1S2`, the Emax (Appendix A) came out at 82%. Further, the IC50 under setting [1] is 20 nM. As for `CCOCCNC(=O)c1ccc2c(c1)N=C(NCc1ccc(Cl)cc1)c1ccccc1S2`, where the note is “Appendix A”, the Emax stood at 1%. As for `CCCC1=Nc2cc(C(=O)NCc3ccc(OC)cc3)ccc2Sc2ccccc21`, the Emax (Appendix A) was determined as 96%. This compound also gave an IC50 under setting [1] of 25.1 nM. Consider `CCCC1=Nc2cc(C(=O)NCCCN(C)C3CCCCC3)ccc2Sc2ccccc21`, for which the Emax (Appendix A) came out at 120%. Consider `O=C(c1ccc2c(c1)N=C(c1ccc(Cl)cc1)c1ccccc1S2)N1CCCCC1`, for which the Emax (Appendix A) was found to be 95%. For the same compound, the IC50 under setting [1] is 31.6 nM. Regarding `CCCC1=Nc2cc(C(=O)NCCCN3CCCCC3CC)ccc2Sc2ccccc21` (stereo not shown), under “Appendix A”, the Emax was determined as 128%. As for `CCCCN(C)C(=O)c1ccc2c(c1)N=C(c1ccccc1Cl)c1ccccc1S2`, for the setting “Appendix A”, the Emax is 40%. On the same count and under the same terms, as for `O=C(NC1CCCC1)c1ccc2c(c1)N=C(c1ccc(Cl)cc1Cl)c1ccccc1S2`, the figure is 52%. For `CC(C)NC(=O)c1ccc2c(c1)N=C(c1ccc(Cl)cc1Cl)c1ccccc1S2`, the Emax (Appendix A) is 45%.

Take `CCCC1=Nc2cc(C(=O)NCCN3CCOCC3)ccc2Sc2ccccc21`: where the note is “Appendix A”, the Emax is 98%.

As for `CCCC1=Nc2cc(C(=O)N3CCN(Cc4ccc5c(c4)OCO5)CC3)ccc2Sc2ccccc21`, the Emax (Appendix A) came out at 96%. The same measure, in the same setting: with `CCCC1=Nc2cc(C(=O)NCCCN3CCC(Cc4ccccc4)CC3)ccc2Sc2ccccc21` the figure was 115%; with `O=C(NN1CCCCC1)c1ccc2c(c1)N=C(N1CCOCC1)c1ccccc1S2`, 76%. As to `O=C(NCCCC(F)(F)F)c1ccc2c(c1)N=C(c1cccc(F)c1)c1ccccc1S2` [drawing 547], the IC50 under setting [2] was 1 nM. Also, for the setting “Appendix A”, the Emax is 100%.

In the case of `O=C(NCc1ccccc1Br)c1ccc2c(c1)N=C(C1CCCCC1)c1ccccc1S2` [drawing 548], under setting [2], the IC50 is 39.8 nM. The Emax (Appendix A) is 85%.

On to `O=C(NCCC(F)(F)F)c1ccc2c(c1)N=C(c1cccc(Cl)c1)c1ccccc1S2` [drawing 549], for which the IC50 under setting [2] was 1.58 nM. Further, the Emax (Appendix A) amounted to 96%. With `CC(C)NC(=O)c1ccc2c(c1)N=C(c1ccc(Cl)s1)c1ccccc1S2` [drawing 550], under setting [2], the IC50 is 39.8 nM. Moreover, the Emax (Appendix A) turned out to be 78%. Consider `CC(C)CNC(=O)c1ccc2c(c1)N=C(c1ccc(Cl)s1)c1ccccc1S2` [drawing 551], for which the pIC50 (Appendix A, receptor form (mutant or wild-type) not stated) is 8.7. Turning to `CCCCNC(=O)c1cc2c(cc1O)Sc1ccccc1C(c1ccc(Cl)cc1)=N2` [drawing 552], the IC50 under setting [2] is 50.1 nM. Further, the Emax (Appendix A) was 95%. For `O=C(NCc1cccs1)c1ccc2c(c1)N=C(c1ccc(Cl)s1)c1ccccc1S2` [drawing 553] the same measures were 2 nM and 114%. For `COc1cccc(C2=Nc3cc(C(=O)NCc4ccc(C)o4)ccc3Sc3ccccc32)n1` [drawing 554], in that order: 50.1 nM and 84%. For `O=C(NCCCC(F)(F)F)c1ccc2c(c1)N=C(c1ccsc1)c1ccccc1S2` [drawing 555] the same measures were 2 nM and 90%. As for `CCCCNC(=O)c1ccc2c(c1)N=C(c1ccc(Cl)cc1)c1cc(Cl)ccc1S2` [drawing 556], under setting [2], the IC50 is 50.1 nM. For the same compound, the Emax (Appendix A) is 112%.

`Cc1csc(CNC(=O)c2ccc3c(c2)N=C(c2cccc(F)c2)c2ccccc2S3)c1` [drawing 557]: the IC50 under setting [2] is 2.51 nM. Besides, the Emax (Appendix A) amounted to 96%. With `CC(C)CNC(=O)c1ccc2c(c1)N=C(c1ccc(Cl)cn1)c1ccc(F)cc1S2` [drawing 558], the IC50 under setting [2] is 50.1 nM. Besides, the Emax (Appendix A) worked out at 123%.

Consider `O=C(NCCCC(F)(F)F)c1ccc2c(c1)N=C(c1ccc(Cl)s1)c1ccccc1S2` [drawing 559], for which the IC50 under setting [2] was 2.51 nM. The Emax (Appendix A) was 103%. Consider `CCCCNC(=O)c1ccc2c(c1)N=C(c1ccc(Cl)cn1)c1cc(F)ccc1S2` [drawing 560], for which, under setting [2], the IC50 is 50.1 nM. Moreover, the Emax (Appendix A) came out at 100%. Consider `Cc1csc(CNC(=O)c2ccc3c(c2)N=C(c2cccc(C)n2)c2ccccc2S3)c1` [drawing 561], for which the IC50 under setting [2] is 2.51 nM. Further, the Emax (Appendix A) was 85%. For `O=C(NCCc1ccccn1)c1ccc2c(c1)N=C(c1ccc(Cl)cc1F)c1ccccc1S2` [drawing 562] the same measures were 50.1 nM and 96%. With `Cc1csc(CNC(=O)c2ccc3c(c2)N=C(c2ccsc2)c2ccccc2S3)c1` [drawing 563], under setting [2], the IC50 was 2.51 nM. Also, the Emax (Appendix A) came to 93%. For `O=C(NC1CCC(F)(F)CC1)c1ccc2c(c1)N=C(c1ccccn1)c1ccccc1S2` [drawing 564] the same measures were 50.1 nM and 79%. Turning to `CC(C)CNC(=O)c1ccc2c(c1)N=C(c1cccc(Cl)c1)c1ccccc1S2` [drawing 565], the “% Inhibition” value (Appendix A) came out at 105%. Take `CC(C)CCNC(=O)c1ccc2c(c1)N=C(c1cccc(Cl)c1)c1ccccc1S2` [drawing 567]: the IC50 under setting [2] was 2.51 nM. Besides, the Emax (Appendix A) is 115%. For `O=C(NCc1ccc(Cl)cc1Cl)c1ccc2c(c1)N=C(c1ccccc1F)c1ccccc1S2` [drawing 568], in that order: 50.1 nM and 85%. For `O=C(NCCc1ccc(Cl)cc1)c1ccc2c(c1)N=C(c1cccc(Cl)c1)c1ccccc1S2` [drawing 569], in that order: 2.51 nM and 106%. For the compound `CCCC1=Nc2cc(C(=O)NCCc3ccc(OC)cc3OC)ccc2Sc2ccccc21` [drawing 570], the IC50 under setting [2] was 50.1 nM. Further, under “Appendix A”, the Emax turned out to be 101%. For `O=C(NCc1cccs1)c1ccc2c(c1)N=C(c1ccc(F)cc1)c1ccccc1S2` [drawing 571], in that order: 2.51 nM and 97%.

For `Cc1ccsc1C1=Nc2cc(C(=O)NC3CCCCC3)ccc2Sc2ccccc21` [drawing 572], the IC50 under setting [2] is 50.1 nM. In addition, the Emax (Appendix A) is 88%.

Turning to `O=C(NCc1cccs1)c1ccc2c(c1)N=C(c1cccc(Cl)c1)c1ccccc1S2` [drawing 573], the IC50 under setting [2] was 2.51 nM. Under “Appendix A”, the Emax stood at 108%. `CCCCNC(=O)c1ccc2c(c1)N=C(c1ccc(Cl)s1)c1ccccc1S2` [drawing 575]: the IC50 under setting [2] is 3.16 nM. Also, for the setting “Appendix A”, the “% Inhibition” value was determined as 97%.

Consider `CC(C)NC(=O)c1ccc2c(c1)N=C(c1ccc(Cl)cc1)c1ccccc1S2` [drawing 576], for which the IC50 under setting [2] is 50.1 nM. The Emax (Appendix A) worked out at 98%.

With `Cc1ccc(CNC(=O)c2ccc3c(c2)N=C(c2ccc(F)cc2)c2ccccc2S3)o1` [drawing 577], the IC50 under setting [2] is 3.16 nM. For the same compound, for the setting “Appendix A”, the Emax worked out at 65%. For `O=C(NN1CCCCCC1)c1ccc2c(c1)N=C(c1ccccc1F)c1ccccc1S2` [drawing 578] the same measures were 50.1 nM and 87%. For the compound `O=C(NCc1cccc(Cl)c1)c1ccc2c(c1)N=C(c1ccc(Cl)cc1)c1ccccc1S2` [drawing 579], under setting [2], the IC50 is 3.16 nM. The Emax (Appendix A) was 112%. Consider `CC(C)CNC(=O)c1ccc2c(c1)N=C(c1ccsc1)c1ccccc1S2` [drawing 581], for which, under setting [2], the IC50 is 3.16 nM. The Emax (Appendix A) worked out at 90%.

Regarding `CC(NC(=O)c1ccc2c(c1)N=C(c1cccc(Cl)c1)c1ccccc1S2)c1ccccc1` (stereo not shown) [drawing 582], the IC50 under setting [2] is 50.1 nM. For the same compound, the Emax (Appendix A) was 87%. On to `O=C(NCc1ccco1)c1ccc2c(c1)N=C(c1cccc(Cl)c1)c1ccccc1S2` [drawing 583], for which the IC50 under setting [2] was 3.16 nM. Besides, for the setting “Appendix A”, the Emax is 100%. On to `O=C(NCc1ccncc1)c1ccc2c(c1)N=C(c1ccc(Br)cc1)c1ccccc1S2` [drawing 586], for which, under “Appendix A”, the Emax stood at 84%. Besides, under setting [1], the IC50 is 50.1 nM.

The term pIC50 denotes the IC50 on a negative log10 scale, so that one unit is a factor of ten. Read a low pIC50 as a high IC50. By % Inhibition is commonly meant the drop in the measured response relative to a control, in per cent.
